Measured values as given in the NIST ThermoML archive (doi:10.1021/je030226s).
± gives the expanded uncertainty stated by the source.

What was measured:
[1] = xn = mol fraction of the nth substance listed; settings: 101.32 kPa, Liquid
[2] = refractive index (Na D-line) (dimensionless); xn = mol fraction of the nth substance listed; settings: 101.32 kPa, Liquid

CCCCCl [1-chlorobutane] + CCCCO
Settings	mass density, 288.15 K [kg/m3]	mass density, 298.15 K [kg/m3]	mass density, 308.15 K [kg/m3]	refractive index, 288.15 K	refractive index, 298.15 K	refractive index, 308.15 K	viscosity, 288.15 K [mPa·s]	viscosity, 298.15 K [mPa·s]	viscosity, 308.15 K [mPa·s]
[1], x2 = 0	892.2 ± 0.6	881 ± 0.7	869.7 ± 0.7	–	–	–	0.472 ± 0.009	0.423 ± 0.008	0.382 ± 0.008
[1], x2 = 0.05	888 ± 0.6	876.9 ± 0.7	865.7 ± 0.7	–	–	–	0.49 ± 0.009	0.437 ± 0.008	0.388 ± 0.008
[1], x2 = 0.1	884.3 ± 0.7	873.3 ± 0.7	862.3 ± 0.7	–	–	–	0.506 ± 0.009	0.453 ± 0.008	0.41 ± 0.008
[1], x2 = 0.2	877 ± 0.7	866.3 ± 0.7	855.5 ± 0.7	–	–	–	0.569 ± 0.009	0.499 ± 0.009	0.442 ± 0.008
[1], x2 = 0.3	869.7 ± 0.7	859.4 ± 0.7	848.9 ± 0.8	–	–	–	0.655 ± 0.01	0.569 ± 0.009	0.497 ± 0.009
[1], x2 = 0.4	862.4 ± 0.7	852.4 ± 0.7	842.2 ± 0.8	–	–	–	0.781 ± 0.011	0.665 ± 0.01	0.57 ± 0.009
[1], x2 = 0.5	854.9 ± 0.7	845.3 ± 0.8	835.4 ± 0.8	–	–	–	0.953 ± 0.013	0.798 ± 0.011	0.676 ± 0.01
[1], x2 = 0.6	847.3 ± 0.8	838 ± 0.8	828.6 ± 0.8	–	–	–	1.196 ± 0.015	0.977 ± 0.013	0.81 ± 0.011
[1], x2 = 0.7	839.4 ± 0.8	830.5 ± 0.8	821.5 ± 0.8	–	–	–	1.528 ± 0.018	1.221 ± 0.015	1 ± 0.013
[1], x2 = 0.8	831.2 ± 0.8	822.7 ± 0.8	814.1 ± 0.9	–	–	–	1.979 ± 0.023	1.563 ± 0.019	1.251 ± 0.015
[1], x2 = 0.9	822.6 ± 0.8	814.5 ± 0.9	806.3 ± 0.9	–	–	–	2.601 ± 0.03	2.019 ± 0.024	1.584 ± 0.019
[1], x2 = 0.95	818.1 ± 0.8	810.3 ± 0.9	802.3 ± 0.9	–	–	–	2.966 ± 0.034	2.328 ± 0.027	1.784 ± 0.021
[2], x2 = 0	–	–	–	1.4045 ± 0.0006	1.3993 ± 0.0006	1.3941 ± 0.0006	–	–	–
[2], x2 = 0.05	–	–	–	1.4041 ± 0.0006	1.3989 ± 0.0006	1.3936 ± 0.0006	–	–	–
[2], x2 = 0.1	–	–	–	1.4039 ± 0.0006	1.3987 ± 0.0006	1.3934 ± 0.0006	–	–	–
[2], x2 = 0.2	–	–	–	1.4035 ± 0.0006	1.3984 ± 0.0006	1.3932 ± 0.0006	–	–	–
[2], x2 = 0.3	–	–	–	1.4031 ± 0.0006	1.3982 ± 0.0006	1.3931 ± 0.0006	–	–	–
[2], x2 = 0.4	–	–	–	1.4029 ± 0.0006	1.3981 ± 0.0006	1.3931 ± 0.0006	–	–	–
[2], x2 = 0.5	–	–	–	1.4027 ± 0.0006	1.398 ± 0.0006	1.3932 ± 0.0006	–	–	–
[2], x2 = 0.6	–	–	–	1.4024 ± 0.0006	1.3979 ± 0.0006	1.3932 ± 0.0006	–	–	–
[2], x2 = 0.7	–	–	–	1.4022 ± 0.0006	1.3978 ± 0.0006	1.3933 ± 0.0006	–	–	–
[2], x2 = 0.8	–	–	–	1.4019 ± 0.0006	1.3977 ± 0.0006	1.3933 ± 0.0006	–	–	–
[2], x2 = 0.9	–	–	–	1.4016 ± 0.0006	1.3975 ± 0.0006	1.3933 ± 0.0006	–	–	–
[2], x2 = 0.95	–	–	–	1.4013 ± 0.0006	1.3974 ± 0.0006	1.3933 ± 0.0006	–	–	–

CCCCCl [1-chlorobutane] + CCCO
Settings	mass density, 288.15 K [kg/m3]	mass density, 298.15 K [kg/m3]	mass density, 308.15 K [kg/m3]	refractive index, 288.15 K	refractive index, 298.15 K	refractive index, 308.15 K	viscosity, 288.15 K [mPa·s]	viscosity, 298.15 K [mPa·s]	viscosity, 308.15 K [mPa·s]
[1], x2 = 0	892.2 ± 0.6	881 ± 0.7	869.7 ± 0.7	–	–	–	0.472 ± 0.009	0.423 ± 0.008	0.382 ± 0.008
[1], x2 = 0.05	888.3 ± 0.6	877.2 ± 0.7	866 ± 0.7	–	–	–	0.473 ± 0.009	0.426 ± 0.008	0.384 ± 0.008
[1], x2 = 0.1	884.9 ± 0.6	873.8 ± 0.7	862.6 ± 0.7	–	–	–	0.495 ± 0.009	0.44 ± 0.008	0.395 ± 0.008
[1], x2 = 0.2	878.2 ± 0.7	867.3 ± 0.7	856.2 ± 0.7	–	–	–	0.525 ± 0.009	0.461 ± 0.009	0.409 ± 0.008
[1], x2 = 0.3	871.2 ± 0.7	860.5 ± 0.7	849.7 ± 0.8	–	–	–	0.587 ± 0.01	0.511 ± 0.009	0.447 ± 0.008
[1], x2 = 0.4	864 ± 0.7	853.5 ± 0.7	842.9 ± 0.8	–	–	–	0.672 ± 0.01	0.576 ± 0.009	0.498 ± 0.009
[1], x2 = 0.5	856.3 ± 0.7	846.1 ± 0.8	835.8 ± 0.8	–	–	–	0.795 ± 0.011	0.67 ± 0.01	0.572 ± 0.009
[1], x2 = 0.6	848.1 ± 0.8	838.3 ± 0.8	828.3 ± 0.8	–	–	–	0.965 ± 0.013	0.802 ± 0.011	0.673 ± 0.01
[1], x2 = 0.7	839.2 ± 0.8	829.8 ± 0.8	820.3 ± 0.8	–	–	–	1.202 ± 0.015	0.977 ± 0.013	0.804 ± 0.011
[1], x2 = 0.8	829.6 ± 0.8	820.7 ± 0.8	811.5 ± 0.9	–	–	–	1.503 ± 0.018	1.206 ± 0.015	0.989 ± 0.013
[1], x2 = 0.9	819.2 ± 0.8	810.7 ± 0.9	802 ± 0.9	–	–	–	1.94 ± 0.023	1.531 ± 0.018	1.229 ± 0.015
[1], x2 = 0.95	813.5 ± 0.9	805.3 ± 0.9	796.9 ± 0.9	–	–	–	2.2 ± 0.026	1.729 ± 0.021	1.375 ± 0.017
[2], x2 = 0	–	–	–	1.4045 ± 0.0006	1.3993 ± 0.0006	1.3941 ± 0.0006	–	–	–
[2], x2 = 0.05	–	–	–	1.4036 ± 0.0006	1.3984 ± 0.0006	1.3931 ± 0.0006	–	–	–
[2], x2 = 0.1	–	–	–	1.4028 ± 0.0006	1.3976 ± 0.0006	1.3923 ± 0.0006	–	–	–
[2], x2 = 0.2	–	–	–	1.4013 ± 0.0006	1.3962 ± 0.0006	1.3909 ± 0.0006	–	–	–
[2], x2 = 0.3	–	–	–	1.3998 ± 0.0006	1.3948 ± 0.0006	1.3895 ± 0.0006	–	–	–
[2], x2 = 0.4	–	–	–	1.3984 ± 0.0006	1.3934 ± 0.0006	1.3882 ± 0.0006	–	–	–
[2], x2 = 0.5	–	–	–	1.3968 ± 0.0006	1.3919 ± 0.0006	1.3869 ± 0.0006	–	–	–
[2], x2 = 0.6	–	–	–	1.3952 ± 0.0006	1.3904 ± 0.0006	1.3855 ± 0.0006	–	–	–
[2], x2 = 0.7	–	–	–	1.3934 ± 0.0006	1.3888 ± 0.0006	1.384 ± 0.0006	–	–	–
[2], x2 = 0.8	–	–	–	1.3914 ± 0.0006	1.387 ± 0.0006	1.3824 ± 0.0006	–	–	–
[2], x2 = 0.9	–	–	–	1.3892 ± 0.0006	1.385 ± 0.0006	1.3807 ± 0.0006	–	–	–
[2], x2 = 0.95	–	–	–	1.3881 ± 0.0006	1.384 ± 0.0006	1.3798 ± 0.0006	–	–	–
